The first test deals with T1, ER (Homo sapiens, UniProt P03372).
T1 construct: host or cells: T47D and MCF7 human breast cancer cells
T1 sequence (P03372 1-595): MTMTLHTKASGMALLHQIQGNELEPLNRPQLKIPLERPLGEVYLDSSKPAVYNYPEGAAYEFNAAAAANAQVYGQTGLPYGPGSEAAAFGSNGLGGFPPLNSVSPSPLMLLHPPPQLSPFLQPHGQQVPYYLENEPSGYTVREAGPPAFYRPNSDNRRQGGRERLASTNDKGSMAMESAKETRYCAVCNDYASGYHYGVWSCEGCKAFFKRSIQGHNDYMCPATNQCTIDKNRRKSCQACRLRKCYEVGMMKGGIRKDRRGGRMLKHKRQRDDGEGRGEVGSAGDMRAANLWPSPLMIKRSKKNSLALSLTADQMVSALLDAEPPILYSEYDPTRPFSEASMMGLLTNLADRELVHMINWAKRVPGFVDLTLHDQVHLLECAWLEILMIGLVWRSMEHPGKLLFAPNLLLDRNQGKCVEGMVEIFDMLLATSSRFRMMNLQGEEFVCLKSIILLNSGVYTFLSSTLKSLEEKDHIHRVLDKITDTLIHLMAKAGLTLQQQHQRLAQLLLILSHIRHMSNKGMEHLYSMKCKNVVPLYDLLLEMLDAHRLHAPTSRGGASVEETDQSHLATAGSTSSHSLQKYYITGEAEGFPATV
Briefly: ER degradation activity, in-cell western blot analysis in T47D cells. The test is classed as cell-based. Particulars: 16 hours, Table A does not say which cell line (T47D or MCF7), read-out: Potency (DC50). In outline: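 Human T47D cells (DMEM, 10% FBS) are dosed for 16 h with 0.5% DMSO final and probed with 680- and 800-dye secondary antibodies. Relative ER is calculated against vehicle and untreated wells.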
In the case of `O=C1CCC(N2C(=O)c3cc4c(cc3C2=O)CN(CC2(F)CCN(C(=O)C3(F)CN(c5ccc([C@@H]6c7ccc(O)cc7CC[C@@H]6c6ccccc6)cc5)C3)CC2)C4)C(=O)N1` (stereo partly drawn) [E 202, 2-(2,6-dioxopiperidin-3-yl)-6-((4-fluoro-1-(3-fluoro-1-(4-((1R,2S)-6-hydroxy-2-phenyl-1,2,3,4-tetrahydronaphthalen-1-yl)phenyl)azetidine-3-carbonyl)piperidin-4-yl)methyl)-6,7-dihydropyrrolo[3,4-f]isoindole-1,3(2H,5H)-dione], the DC50 is more than 100 nM.
`O=C1CCC(N2C(=O)c3cc4c(cc3C2=O)CN(C(=O)[C@H]2CC[C@H](CN3CC(Nc5ccc([C@@H]6c7ccc(O)cc7CC[C@@H]6c6ccccc6)cc5)C3)CC2)C4)C(=O)N1` (stereo partly drawn) [E 363, 2-(2,6-dioxopiperidin-3-yl)-6-((1R,4r)-4-((3-((4-((1R,2S)-6-hydroxy-2-phenyl-1,2,3,4-tetrahydronaphthalen-1-yl)phenyl)amino)azetidin-1-yl)methyl)cyclohexane-1-carbonyl)-6,7-dihydropyrrolo[3,4-f]isoindole-1,3(2H,5H)-dione]: the DC50 was less than 10 nM.
Regarding `O=C1CCC(N2C(=O)c3cc4c(cc3C2=O)CN(CC(=O)N2CCC3(CC2)CCN(c2ccc(C(=C(CCCl)c5ccccc5)c5ccc(O)cc5)cc2)C3)C4)C(=O)N1` (stereo not shown) [E 190, 6-(2-(2-(4-(4-chloro-1-(4-hydroxyphenyl)-2-phenylbut-1-en-1-yl)phenyl)-2,8-diazaspiro[4.5]decan-8-yl)-2-oxoethyl)-2-(2,6-dioxopiperidin-3-yl)-6,7-dihydropyrrolo[3,4-f]isoindole-1,3(2H,5H)-dione], the half-maximal degradation concentration (DC50) was in the range of 10 to 100 nM.
Regarding `O=C1CCC(N2C(=O)c3cc4c(cc3C2=O)CN(CC(=O)N2CCC3(CC2)CCN(c2ccc([C@@H]5c6ccc(O)cc6CCC56CCCC6)cc2)CC3)C4)C(=O)N1` (mixture of isomers) [E 179, Rac-2-(2,6-dioxopiperidin-3-yl)-6-(2-(9-(4-((R)-6′-hydroxy-3′,4′-dihydro-1′H-spiro[cyclopentane-1,2′-naphthalen]-1′-yl)phenyl)-3,9-diazaspiro[5.5]undecan-3-yl)-2-oxoethyl)-6,7-dihydropyrrolo[3,4-f]isoindole-1,3(2H,5H)-dione], the DC50 fell in the range of 10 to 100 nM.
On the same count and under the same terms, under `O=C1CCC(N2C(=O)c3cc4c(cc3C2=O)CN(C2CCC(C(=O)N3CCCC(Oc5ccc([C@@H]6c7ccc(O)cc7CC[C@@H]6c6ccccc6)cc5)C3)CC2)C4)C(=O)N1` (mixture of isomers) [E 23, Rac-2-(2,6-dioxopiperidin-3-yl)-6-(4-(3-(4-((1R,2S)-6-hydroxy-2-phenyl-1,2,3,4-tetrahydronaphthalen-1-yl)phenoxy)piperidine-1-carbonyl)cyclohexyl)-6,7-dihydropyrrolo[3,4-f]isoindole-1,3(2H,5H)-dione] stands 10 to 100 nM; under `O=C1CCC(N2Cc3cc4c(cc3C2=O)CN(C2CCN(CC3CN(c5ccc([C@H]6c7ccc(O)cc7CC[C@H]6c6ccc(F)cc6)cc5)C3)CC2)C4)C(=O)N1` (stereo partly drawn) [E 279, 3-(6-(1-((1-(4-((1S,2R)-2-(4-fluorophenyl)-6-hydroxy-1,2,3,4-tetrahydronaphthalen-1-yl)phenyl)azetidin-3-yl)methyl)piperidin-4-yl)-1-oxo-3,5,6,7-tetrahydropyrrolo[3,4-f]isoindol-2(1H)-yl)piperidine-2,6-dione], 10 to 100 nM; under `C[C@@H]1Cc2c([nH]c3ccccc23)[C@@H](c2c(F)cc(C3CCC(C(=O)N4CCC(F)(CN5Cc6cc7c(cc6C5)C(=O)N(C5CCC(=O)NC5=O)C7=O)CC4)CC3)cc2F)N1CC(F)F` (stereo partly drawn) [E247, 6-((1-(4-(4-((1R,3R)-2-(2,2-difluoroethyl)-3-methyl-2,3,4,9-tetrahydro-1H-pyrido[3,4-b]indol-1-yl)-3,5-difluorophenyl)cyclohexane-1-carbonyl)-4-fluoropiperidin-4-yl)methyl)-2-(2,6-dioxopiperidin-3-yl)-6,7-dihydropyrrolo[3,4-f]isoindole-1,3(2H,5H)-dione], 10 to 100 nM.
`C[C@@H]1Cc2cc(O)ccc2[C@@H](c2ccc(N3CCC(C(=O)N4CC(CN5Cc6cc7c(cc6C5)C(=O)N(C5CCC(=O)NC5=O)C7=O)C4)CC3)cc2)N1CC(F)F` (stereo partly drawn) [E 350, 6-((1-(1-(4-((1R,3R)-2-(2,2-difluoroethyl)-6-hydroxy-3-methyl-1,2,3,4-tetrahydroisoquinolin-1-yl)phenyl)piperidine-4-carbonyl)azetidin-3-yl)methyl)-2-(2,6-dioxopiperidin-3-yl)-6,7-dihydropyrrolo[3,4-f]isoindole-1,3(2H,5H)-dione]: the DC50 is more than 100 nM.
With `C[C@@H]1Cc2c([nH]c3ccccc23)[C@@H](c2c(F)cc(C3CCC(CN4CCC(N5Cc6cc7c(cc6C5)C(=O)N(C5CCC(=O)NC5=O)C7=O)CC4)CC3)cc2F)N1CC(F)F` (stereo partly drawn) [E 282, 6-(1-((4-(4-((1R,3R)-2-(2,2-difluoroethyl)-3-methyl-2,3,4,9-tetrahydro-1H-pyrido[3,4-b]indol-1-yl)-3,5-difluorophenyl)cyclohexyl)methyl)piperidin-4-yl)-2-(2,6-dioxopiperidin-3-yl)-6,7-dihydropyrrolo[3,4-f]isoindole-1,3(2H,5H)-dione], the DC50 is more than 100 nM.
Same read-out and setting: to `O=C1CCC(N2C(=O)c3cc4c(cc3C2=O)CN(CC(=O)N2CC3(C2)CN(c2ccc([C@@H]5c6ccc(O)cc6CC[C@@H]5c5ccccc5)cc2)C3)C4)C(=O)N1` (mixture of isomers) [E 8, 2-(2,6-dioxopiperidin-3-yl)-6-(2-(6-(4-((1R,2S)-6-hydroxy-2-phenyl-1,2,3,4-tetrahydronaphthalen-1-yl)phenyl)-2,6-diazaspiro[3.3]heptan-2-yl)-2-oxoethyl)-6,7-dihydropyrrolo[3,4-f]isoindole-1,3(2H,5H)-dione] belongs 10 to 100 nM; to `O=C1CCC(N2C(=O)c3cc4c(cc3C2=O)CN(C2CCC(CNC3CN(c5ccc([C@@H]6c7ccc(O)cc7CC[C@@H]6c6ccccc6)cc5)C3)CC2)C4)C(=O)N1` (stereo partly drawn) [E 338, 2-(2,6-dioxopiperidin-3-yl)-6-(4-(((1-(4-((1R,2S)-6-hydroxy-2-phenyl-1,2,3,4-tetrahydronaphthalen-1-yl)phenyl)azetidin-3-yl)amino)methyl)cyclohexyl)-6,7-dihydropyrrolo[3,4-f]isoindole-1,3(2H,5H)-dione], more than 100 nM.

Staying with this test, now noted: compounds 16 hours, Table A does not say whether T47D or MCF7, read-out: Potency (DC50).
For the compound `C[C@@H]1Cc2cc(O)ccc2[C@@H](c2ccc(C(=O)N3CC4(CCN(C(=O)CN5Cc6cc7c(cc6C5)C(=O)N(C5CCC(=O)NC5=O)C7=O)CC4)C3)cc2)N1CC(F)F` (stereo partly drawn) [E 459, 6-(2-(2-(4-((1R,3R)-2-(2,2-difluoroethyl)-6-hydroxy-3-methyl-1,2,3,4-tetrahydroisoquinolin-1-yl)benzoyl)-2,7-diazaspiro[3.5]nonan-7-yl)-2-oxoethyl)-2-(2,6-dioxopiperidin-3-yl)-6,7-dihydropyrrolo[3,4-f]isoindole-1,3(2H,5H)-dione], the DC50 was less than 10 nM.
Regarding `C[C@@H]1Cc2cc(O)ccc2[C@@H](c2c(F)cc(C3=CCC4(CC3)CCN(C(=O)CN3Cc5cc6c(cc5C3)C(=O)N(C3CCC(=O)NC3=O)C6=O)CC4)cc2F)N1CC(F)F` (stereo partly drawn) [E 446, 6-(2-(9-(4-((1S,3R)-2-(2,2-difluoroethyl)-6-hydroxy-3-methyl-1,2,3,4-tetrahydroisoquinolin-1-yl)-3,5-difluorophenyl)-3-azaspiro[5.5]undec-8-en-3-yl)-2-oxoethyl)-2-(2,6-dioxopiperidin-3-yl)-6,7-dihydropyrrolo[3,4-f]isoindole-1,3(2H,5H)-dione tetrahydroisoquinolin], the DC50 is more than 100 nM.

In general, DC50 refers to the concentration at which degradation of the target reaches its halfway point.

(Values after patent publication US20240190880A1 (THE REGENTS OF THE UNIVERSITY OF MICHIGAN, priority 2021, published 2024).)
